# Legend:
# [1] = test system: Methicillin-resistant S. aureus (MRSA, ATCC 33591); assay: MIC against MRSA; format: cell-based; conditions: Staphylococcus aureus; Gram +; 16 h, 37° C.
# Description: (§1) Minimum Inhibitory Concentrations (MICs) Against Bacteria.
# (§2) The antimicrobial activity of the compounds was tested on the following six bacteria strains: K. pneumoniae (ATCC 13383), P. aeruginosa (ATCC27853), E. coli (ATCC 25922), vancomycin-resistant Enterococcus faecalis(ATCC 700802), Methicillin-resistant S. aureus (MRSA, ATCC 33591), Methicillin-resistant S. epidermidis (MRSE, RP62A). The procedures were followed as reported previously (Hancock et al., Immunobiology 2006, 211, 315-322). Briefly, a single colony of each bacterium was inoculated in 3 mL TSB medium and incubated overnight at 37° C. Then the bacteria culture was diluted at 1:100 and the bacteria were allowed to grow to mid-logarithmic phase. Next, 50 μL of 2-fold serial dilutions of compounds (0.1-25 μg/mL) were added the 96-well plate containing aliquots of 50 μL of bacteria suspension (1×10^6 CFU/mL) in each well. The mixture was incubated at 37° C. for 16 h, and their absorption at 600 nm wavelength was read on a Biotek Synergy HT microtiter plate reader. […] The experiments were repeated at least three times with duplicates each time. HC50 means the concentration causing 50% hemolysis.
# [2] = test system: vancomycin-resistant Enterococcus faecalis (ATCC 700802); assay: MIC against VRE; format: cell-based; conditions: Gram +; 16 h, 37° C.
# Description: as §1, §2
# E. coli [3] = assay: Fluorescence microscopy (DAPI/PI) of bacterial membranes, E. coli; format: cell-based; conditions: 10 μg/mL, 2 h, 37° C.
# Description: Fluorescence microscopy studies were conducted to evaluate the ability of compound 12 to compromise membranes of S. aureus (Gram-positive bacterium) and E. coli (Gram-negative bacterium). Fluorescent agent 4′,6-diamidino-2-phenylindole (DAPI) was used to stain membranes of bacterial cells with blue fluorescence regardless of cell viability, and the red fluorescence of propidium iodide (PI) due to the DNA intercalation was used to stain impaired membranes. After MRSA and E. Coli grew to mid-logarithmic phase, the compound 12 was incubated with the bacteria at 37° C. for 2 h. The mixture was then centrifuged at 5000 rpm for 15 min. The cell pellets were washed with the PBS buffer for three times, and incubated with PI ([…]) and DAPI (10 μg/mL) for 15 min sequentially on ice in the dark. The mixture was then centrifuged and the pellets were washed with the PBS buffer. Next, 10 μL of the samples were placed on chamber slides and observed under Zeiss Axio Image Zloptical microscope using 100× oil-immersion objective.
# [4] = test system: P. aeruginosa (ATCC27853); assay: MIC against P. aeruginosa; format: cell-based; conditions: Pseudomonas aeruginosa, ATCC27853; Gram −; 16 h, 37° C.
# Description: as §1, §2
# [5] = test system: Methicillin-resistant S. epidermidis (MRSE, RP62A); assay: MIC against MRSE; format: cell-based; conditions: Staphylococcus epidermidis, MRSE; Gram +; 16 h, 37° C.
# Description: as §1, §2
# E. coli (ATCC 25922) = assay: MIC against E. coli; format: cell-based; conditions: Escherichia coli, ATCC25922; Gram −; 16 h, 37° C.
# Description: as §1, §2
# MRSA biofilm = assay: Biofilm formation inhibition (crystal violet), MRSA; format: cell-based, S. aureus
# Description: Bacteria in biofilms are known to tolerate antibiotic treatment and are thus more difficult to eradicate than planktonic cells. Biofilms formed by MRSA and E. coli have frustrated the treatment of persistent bacterial infections. Compound 12 was evaluated for its ability to inhibit biofilm formation of MRSA and E. coli. Overnight grown bacteria were inoculated into fresh 10% of MHII broth at a ratio of 1:100. 100 μL of inoculated culture was incubated with appropriated amounts of compound 12 in wells of 96-well plate. The plate was incubated at 37° C. for overnight. Optical density of each well was recorded at the wavelength of 600 nm and then the biofilm biomass was recorded by the crystal violet method. Biofilm biomass was presented as CV OD/OD of growth. Relative biofilm biomass values were normalized by the biomass value of control (no addition of compound). Experiments were conducted in triplicate and the data were presented as mean±STDEV.
# E. coli [6] = assay: Drug-resistance study, 14 passages, E. coli; format: cell-based; conditions: half-MIC exposure, 14 successive passages
# Description: Bacterial resistance tests were conducted using compound 12. The compound was incubated with either MRSA or E. Coli in the well at the concentration of half-MIC (½ MIC, 10^6 CFU/ml) every day and tested for their activity through 14 successive passages.
# S. aureus ATCC 33591 = assay: Thigh burden infection model in neutropenic mice; format: in vivo, CD-1 female mice; conditions: 5 mg/kg i.v. at 1 and 7 h after infection, thighs harvested at 25 h
# Description: Neutropenic mice (n=4 per group) were inoculated in the posterior thigh muscles with S. aureus ATCC 33591 at 1×10^6 CFU per thigh and then treated with compounds 11 and 12 (5 mg/kg per dose) by i.v. bolus injection in the tail vein at 1 and 7 h after infection.
# A thigh burden model was employed to evaluate the in vivo anti-infective activity of compounds 11 and 12, in which the thigh muscle of neutropenic mice was inoculated with S. aureus, followed by intravenous (i.v.) administration of corresponding compounds. All protocols and methods associated with animal experiments were approved by University of South Florida (USF) Institutional Animal Care and Use Committee. The in vivo experiment on the mouse model of the thigh burden infection with MRSA was conducted adapted from previously reported protocol. The CD-1 female mice which were 6 to 8 weeks old and around 25 g in weights were used for the study. Neutropenic Mice were induced by injecting cyclophosphamide (150 mg/kg) intraperitoneally twice at 4 and 1 days before bacterial inoculation. One MRSA colony from tryptic soy agar (TSA) cultures was allowed to grow in tryptic soy broth (TSB) overnight at 37° C., then 100 μL culture was withdrawn and diluted with TSB to a total volume of 4 mL, which was subsequently incubated at 37° C. for another 6 h. […] The formed colonies were counted to calculate CFU per thigh.
# [7] = test system: six bacteria strains (K. pneumoniae, P. aeruginosa, E. coli, VRE, MRSA, MRSE); assay: Antimicrobial activity on the panel of six bacteria strains; format: cell-based
# Description: as §1, §2
smiles,measurement,setting,value
CCCCCCN1C(=N)N(CC(=O)Nc2cccc(NC(=O)CN3C[C@H](Cc4ccccc4)N(CCCCCC)C3=N)c2)C[C@@H]1Cc1ccccc1 [Compound 12],MIC,[1],0.16 µg/mL
same,MIC,[2],0.75 µg/mL
same,membrane integrity of E. coli (PI red fluorescence),E. coli [3],disrupted
same,MIC,[4],4 µg/mL
same,MIC,[5],0.75 µg/mL
same,MIC,E. coli (ATCC 25922),0.75 µg/mL
same,inhibition of biofilm formation,MRSA biofilm; 0.39 μg/mL,completely eradicated
same,inhibition at 0.19 µg/mL,"MRSA biofilm; Staphylococcus aureus, 0.19 μg/mL",85%
same,MIC after 14 passages,E. coli [6],virtually constant
same,decrease in colony-forming unit (CFU) per thigh,S. aureus ATCC 33591,5 log10 CFU
same,antibacterial activity against the tested bacteria (in words),[7],potent and broad-spectrum activity
same,MIC,[7]; read-out: MIC toward most strains,0.75 µg/mL
